Source: patent publication US8263598B2, “Substituted sulfonamide compounds” (Gruenenthal GmbH, priority 2008, dated 2012)

Tests used:
[1] = biological target: T1, human B1R receptor (hB1R) (Homo sapiens, UniProt P46663); assay: FLIPR Ca2+ assay on human bradykinin 1 receptor (CHO K1 hB1R cells); type: cell-based; conditions: test substance 10 μM; CHO K1 cells with human B1R gene; agonist Lys-Des-Arg9-bradykinin 0.5 nM; compared to maximum achievable inhibition
T1 construct: host or cells: CHO K1 cells
T1 sequence (P46663 1-353): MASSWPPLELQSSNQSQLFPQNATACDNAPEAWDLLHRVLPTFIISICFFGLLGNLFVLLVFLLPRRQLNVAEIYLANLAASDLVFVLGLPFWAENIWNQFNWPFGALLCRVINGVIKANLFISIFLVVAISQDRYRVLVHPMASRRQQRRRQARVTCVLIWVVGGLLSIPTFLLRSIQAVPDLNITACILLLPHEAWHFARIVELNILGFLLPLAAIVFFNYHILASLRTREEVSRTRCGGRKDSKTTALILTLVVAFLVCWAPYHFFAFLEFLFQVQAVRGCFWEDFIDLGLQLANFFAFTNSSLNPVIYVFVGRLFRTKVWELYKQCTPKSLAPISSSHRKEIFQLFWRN
Procedure: (§1) The agonistic or antagonistic action of compounds can be quantified on the bradykinin 1 receptor (B1R) of humans and rats with ectopically expressing cell lines (CHO K1 cells) and with the aid of a Ca^2+-sensitive dye (Fluo-4) in the fluorescent imaging plate reader (FLIPR). The figure in percent activation refers to the Ca^2+ signal after addition of Lys-Des-Arg^9-bradykinin (0.5 nM) and Des-Arg^9-bradykinin (100 nM). Antagonists result in a suppression of the Ca^2+ inflow after the addition of the agonist. Percent inhibition values are given in comparison to the maximum achievable inhibition.
(§2) The agonistic or antagonistic action of substances can be determined on the bradykinin 1 receptor (B1R) of humans and rats by means of the following assay.
(§3) According to this assay the Ca^2+ inflow through the channel is quantified by means of a Ca^2+-sensitive dye (Fluo-4 type, Molecular Probes Europe BV, Leiden, Netherlands), in a Fluorescent Imaging Plate Reader (FLIPR, Molecular Devices, Sunnyvale, USA). Method:
(§4) Chinese hamster ovary cells (CHO K1 cells) are used, which are stably transfected with the human B1R gene (hB1R cells, Euroscreen s.a., Gosselies, Belgium), or with the B1R gene of rats (rB1R cells, Axxam, Milan, Italy). For functional investigations these cells are plated out on black 96-well plates with a clear floor (BD Biosciences, Heidelberg, Germany) in a density of 20,000/25,000 cells/well. The cells are incubated overnight with 10 vol. % FBS (foetal bovine serum, Gibco Invitrogen GmbH, Karlsruhe, Germany) at 37° C. and 5% CO2 in a culture medium (hB1R cells: Nutrient Mixture Ham's F12, Gibco Invitrogen GmbH, Karlsruhe, Germany; rB1R cells: D-MEM/F12, Gibco Invitrogen GmbH, Karlsruhe, Germany). The following day the cells are charged for 60 minutes at 37° C. with 2.13 μM Fluo-4 (Molecular Probes Europe BV, Leiden, Netherlands) in HBSS buffer (Hank's buffered saline solution, Gibco Invitrogen GmbH, Karlsruhe, Germany) together with […] (Sigma-Aldrich, Taufkirchen, Germany) and 10 mM HEPES (Sigma-Aldrich, Taufkirchen, Germany).
(§5) The plates are then washed twice with HBSS buffer and HBSS buffer is added which additionally contains 0.1% BSA (bovine serum albumin; Sigma-Aldrich, Taufkirchen, Germany), 5.6 mM glucose and 0.05% gelatin (Merck KGaA, Darmstadt, Germany). After further incubation for 20 minutes at room temperature the plates are used for the Ca^2+ measurement in the FLIPR. The Ca^2+-dependent fluorescence is measured both before and after the addition of substances (λex=488 nm, λem=540 nm). The quantification is carried out by measuring the highest fluorescence intensity (FC, fluorescence counts) over time.
(§6) The FLIPR protocol consists of two substance additions. First of all test substances (10 μM) are pipetted onto the cells and the Ca^2+ inflow is compared with the control (hB1R: Lys-Des-Arg9-bradykinin 0.5 nM; rB1R: Des-Arg9-bradykinin 100 nM). This gives the result in percent activation referred to the Ca^2+ signal after addition of Lys-Des-Arg9-bradykinin (0.5 nM), bzw. Des-Arg9-bradykinin (100 nM). After 10 minutes' incubation 0.5 nM Lys-Des-Arg9-bradykinin (hB1R) and 100 nM Des-Arg^9-bradykinin (rB1R) are applied and the inflow of Ca^2+ is likewise determined. Antagonists lead to a suppression of the Ca^2+ inflow. The percent inhibition compared to the maximum achievable inhibition is calculated. The compounds show a good activity on both human and rat receptors.
(§7) The agonistic and antagonistic action of the compounds according to the invention on the bradykinin 1 receptor (B1R) of humans and rats were determined as described above. Antagonists lead to a suppression of the Ca^2+ inflow. The % inhibition compared to the maximum achievable inhibition was calculated.

[2] = biological target: T2, B1R receptor of rats (rB1R) (Rattus norvegicus, UniProt P97583); assay: FLIPR Ca2+ assay on rat bradykinin 1 receptor (CHO K1 rB1R cells); type: cell-based; conditions: test substance 10 μM; CHO K1 cells with B1R gene of rats; agonist Des-Arg9-bradykinin 100 nM; compared to maximum achievable inhibition
T2 construct: host or cells: CHO K1 cells
T2 sequence (P97583 1-337): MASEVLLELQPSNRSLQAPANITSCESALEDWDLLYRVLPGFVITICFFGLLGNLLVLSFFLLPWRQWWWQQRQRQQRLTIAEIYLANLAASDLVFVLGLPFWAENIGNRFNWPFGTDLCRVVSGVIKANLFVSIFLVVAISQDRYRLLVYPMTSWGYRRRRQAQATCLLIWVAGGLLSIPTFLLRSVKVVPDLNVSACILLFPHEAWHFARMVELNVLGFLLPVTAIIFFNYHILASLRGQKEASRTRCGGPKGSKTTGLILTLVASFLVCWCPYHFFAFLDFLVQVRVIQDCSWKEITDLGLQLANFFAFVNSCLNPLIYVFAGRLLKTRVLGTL
Procedure: as §1, §2, §3, §4, §5, §6, §7

Row | SMILES | inhibition at 10 µM [1] | inhibition at 10 µM [2]
1 | COc1ccc(C2c3cccn3CCN2C(=O)COCCN(C)S(=O)(=O)c2cc(C)c(OC)c(C)c2C)cc1 (centres unmarked) [Example 31, 4-methoxy-N-(2-(2-(1-(4-methoxyphenyl)-3,4-dihydropyrrolo[1,2-a]pyrazin-2(1H)-yl)-2-oxoethoxy)ethyl)-N,2,3,5-tetramethylbenzenesulfonamide] | 95% | 67%
2 | COc1c(C)cc(S(=O)(=O)N(C)CCOCC(=O)N2CCn3cccc3C2c2ccccc2)c(C)c1C (centres unmarked) [Example 32, 4-methoxy-N,2,3,5-tetramethyl-N-(2-(2-oxo-2-(1-phenyl-3,4-dihydropyrrolo[1,2-a]pyrazin-2(1H)-yl)ethoxy)ethyl)benzenesulfonamide] | 78% | 99%
3 | COc1c(C)cc(S(=O)(=O)N(C)CCOCC(=O)N2CCn3cccc3C2c2ccc(F)c(F)c2)c(C)c1C (centres unmarked) [Example 33, N-(2-(2-(1-(3,4-difluorophenyl)-3,4-dihydropyrrolo[1,2-a]pyrazin-2(1H)-yl)-2-oxoethoxy)ethyl)-4-methoxy-N,2,3,5-tetramethylbenzenesulfonamide] | 71% | 66%
4 | COc1c(C)cc(S(=O)(=O)N(C)CCOCC(=O)N2CCn3cccc3C2c2ccc(C)c(C)c2)c(C)c1C (centres unmarked) [Example 34, N-(2-(2-(1-(3,4-dimethylphenyl)-3,4-dihydropyrrolo[1,2-a]pyrazin-2(1H)-yl)-2-oxoethoxy)ethyl)-4-methoxy-N,2,3,5-tetramethylbenzenesulfonamide] | 58% | 42%
5 | COc1c(C)cc(S(=O)(=O)N(C)CCOCC(=O)N2CCn3cccc3C2c2cccc(F)c2)c(C)c1C (centres unmarked) [Example 35, N-(2-(2-(1-(3-fluorophenyl)-3,4-dihydropyrrolo[1,2-a]pyrazin-2(1H)-yl)-2-oxoethoxy)ethyl)-4-methoxy-N,2,3,5-tetramethylbenzenesulfonamide] | 81% | 48%
6 | COc1c(C)cc(S(=O)(=O)N(C)CCOCC(=O)N2CCn3cccc3C2c2cccs2)c(C)c1C (centres unmarked) [Example 36, 4-methoxy-N,2,3,5-tetramethyl-N-(2-(2-oxo-2-(1-(thiophen-2-yl)-3,4-dihydropyrrolo[1,2-a]pyrazin-2(1H)-yl)ethoxy)ethyl)benzenesulfonamide] | 97% | 85%
7 | COc1c(C)cc(S(=O)(=O)N(C)CCOCC(=O)N2CCn3cccc3C2c2cccc(C(F)(F)F)c2)c(C)c1C (centres unmarked) [Example 37, 4-methoxy-N,2,3,5-tetramethyl-N-(2-(2-oxo-2-(1-(3-(trifluoromethyl)phenyl)-3,4-dihydropyrrolo[1,2-a]pyrazin-2(1H)-yl)ethoxy)ethyl)benzenesulfonamide] | 38% | 72%
8 | COc1cccc(C2c3cccn3CCN2C(=O)COCCN(C)S(=O)(=O)c2cc(C)c(OC)c(C)c2C)c1 (centres unmarked) [Example 38, 4-methoxy-N-(2-(2-(1-(3-methoxyphenyl)-3,4-dihydropyrrolo[1,2-a]pyrazin-2(1H)-yl)-2-oxoethoxy)ethyl)-N,2,3,5-tetramethylbenzenesulfonamide] | 97% | 43%

Continued, values first:

Row | inhibition at 10 µM [1] | inhibition at 10 µM [2] | SMILES
9 | 35% | 80% | COc1c(C)cc(S(=O)(=O)N(C)CCOCC(=O)N2CCn3cccc3C2c2ccc(C(F)(F)F)cc2F)c(C)c1C (centres unmarked) [Example 39, N-(2-(2-(1-(2-fluoro-4-(trifluoromethyl)phenyl)-3,4-dihydropyrrolo[1,2-a]pyrazin-2(1H)-yl)-2-oxoethoxy)ethyl)-4-methoxy-N,2,3,5-tetramethyl-benzenesulfonamide]
10 | 34% | 95% | COc1cc(C)c(S(=O)(=O)N(CCOCC(=O)N2CCn3cccc3C2C)Cc2ccccc2)c(C)c1C (centres unmarked) [Example 40, N-benzyl-4-methoxy-2,3,6-trimethyl-N-(2-(2-(1-methyl-3,4-dihydropyrrolo[1,2-a]pyrazin-2(1H)-yl)-2-oxoethoxy)ethyl)benzenesulfonamide]
11 | 57% | 96% | COc1cc(C)c(S(=O)(=O)N(CCOCC(=O)N2CCn3cccc3C2c2cccnc2)Cc2ccccc2)c(C)c1C (centres unmarked) [Example 41, N-benzyl-4-methoxy-2,3,6-trimethyl-N-(2-(2-oxo-2-(1-(pyridin-3-yl)-3,4-dihydropyrrolo[1,2-a]pyrazin-2(1H)-yl)ethoxy)ethyl)benzenesulfonamide]
12 | 33% | 91% | COc1cc(C)c(S(=O)(=O)N(CCOCC(=O)N2CCn3cccc3C2c2ccc(Cl)nc2)Cc2ccccc2)c(C)c1C (centres unmarked) [Example 42, N-benzyl-N-(2-(2-(1-(6-chloropyridin-3-yl)-3,4-dihydropyrrolo[1,2-a]pyrazin-2(1H)-yl)-2-oxoethoxy)ethyl)-4-methoxy-2,3,6-trimethylbenzenesulfonamide]
13 | 33% | 73% | COc1cc(C)c(S(=O)(=O)N(CCOCC(=O)N2CCn3ccnc3C2)Cc2ccccc2)c(C)c1C [Example 43, N-benzyl-N-(2-(2-(5,6-dihydroimidazo[1,2-a]pyrazin-7(8H)-yl)-2-oxoethoxy)ethyl)-4-methoxy-2,3,6-trimethylbenzenesulfonamide]
14 | 88% | 98% | COc1cc(C)c(S(=O)(=O)N(CCOCC(=O)N2CCn3cccc3C2C(C)(C)C)Cc2ccccc2)c(C)c1 (centres unmarked) [Example 44, N-benzyl-N-(2-(2-(1-tert-butyl-3,4-dihydropyrrolo[1,2-a]pyrazin-2(1H)-yl)-2-oxoethoxy)ethyl)-4-methoxy-2,6-dimethylbenzenesulfonamide]
15 | 83% | 99% | COc1cc(C)c(S(=O)(=O)N(CCOCC(=O)N2CCn3cccc3C2C)Cc2ccccc2)c(C)c1 (centres unmarked) [Example 45, N-benzyl-4-methoxy-2,6-dimethyl-N-(2-(2-(1-methyl-3,4-dihydropyrrolo[1,2-a]pyrazin-2(1H)-yl)-2-oxoethoxy)ethyl)benzenesulfonamide]
16 | 41% | 96% | COc1cc(C)c(S(=O)(=O)N(CCOCC(=O)N2CCn3ccnc3C2)Cc2ccccc2)c(C)c1 [Example 46, N-benzyl-N-(2-(2-(5,6-dihydroimidazo[1,2-a]pyrazin-7(8H)-yl)-2-oxoethoxy)ethyl)-4-methoxy-2,6-dimethylbenzenesulfonamide]
